# In patent publication US20100056519A1, “COMPOSITION AND METHOD FOR REDUCING PLATELET ACTIVATION AND FOR THE TREATMENT OF THROMBOTIC EVENTS” (priority 2008, published 2010):
# What was measured:
# Assay type in all cases: cell-based, human
# PMA (CD14 + CD151) [1] = assay: TRAP-stimulated whole blood flow cytometry, platelet-monocyte aggregates; conditions: Mean ± SD
# Experimental: (§1) The methodology employed was conventional aggregation induced by 5 μM ADP, 1 μg/ml collagen, 10 μM TRAP, whole blood aggregation with 1 μg/ml collagen, Ultegra, and PFA-100 Analyzers, expression of 14 intact, and TRAP-stimulated major receptors by whole blood flow cytometry were utilized to assess platelet activity after preincubation with escalating concentrations of E5555 (20 ng/ml, 50 ng/ml, and 100 ng/ml). The experiments were performed in healthy volunteers, CAD patients treated with ASA, and CAD patients treated with ASA and clopidogrel combination (n=10, for each group).
# (§2) An Informed Consent was obtained from all volunteers. Drug users were excluded from data analysis. The study was approved by Quorum Institutional Review Board. All subjects underwent blood sampling after at least 30 minutes of rest and two or more hours of fasting. Blood (28 ml) was drawn between 8 and 10 a.m. in order to avoid any diurnal influence and sampled from an antecubital vein using a 21-gauge butterfly needle containing 3.2% sodium citrate (1:9 volume) after having discarded the first 1.5 ml of free running blood. Four Vacutainer tubes (7.0 ml) were collected for a total of 28 ml of whole blood-citrate mixture from each study participant. Chronologically, blood samples were delivered to the core laboratory facility within 45 minutes after drawing. Then all tubes of blood-citrate mixture were pooled. One portion of pooled blood (5 ml) was kept as an internal control and pretreated with the vehicle. The remaining blood (23 ml) was used for the in vitro exposure to E5555 at concentrations of 20 ng/ml, 50 ng/ml, and 100 ng/ml. […] The platelet aggregation studies, Rapid Analyzers measures, and flow cytometry preparations were initiated within no more than 110 minutes following the blood draw, incubation with the drug, and preparation of the samples.
# (§3) Formation of platelet-leukocyte aggregates was assessed by dual labeling with pan-platelet marker (CD151), and then with CD14, the macrophage receptor for endotoxin lipopolysaccharides (PharMingen, and Coulter, San Diego, Calif., USA). The tubes were then covered with aluminum foil and incubated at 37° C. for 40 minutes with gentle rotation. After incubation, samples were immediately analyzed on a Becton Dickinson FACScan flow cytometer. The instrument was set up to measure forward light scatter, and FITC fluorescence. All parameters were collected using four-decade logarithmic amplification. The data was retrieved in list mode files and then analyzed. P selectin was expressed as percent positive cells. Other antigens were expressed as log mean fluorescence intensity.
# (§4) For flow cytometry (TRAP-stimulated) all of the above flow cytometry experiments were identically repeated utilizing prestimulation with 10 μmol/L TRAP for 5 minutes at 37° C. To determine statistics, a Paired Sign Test was used to define significance of differences between vehicle and E5555-treated groups. The Mann-Whitney U test was used to analyze nonparametric data. Normally distributed data were expressed as mean±standard error (m±SE), and skewed data as median (range). All P-values were two sided. All analysis was performed using the SPSS v9.0 program (SPSS Inc., Chicago, Ill.).
# SPAN-12 = assay: Unstimulated whole blood flow cytometry, SPAN-12; conditions: Mean ± SD
# Experimental: as §1, §2, §3
# CD-40L (CD154) [2] = assay: Unstimulated whole blood flow cytometry, CD40-ligand; conditions: for CD-40L (CD154), Mean Fluorescence Intensity: unstimulated, Mean ± SD
# Experimental: as §1, §2, §3
# platelets = assay: Conventional platelet aggregation in PRP induced by 5 μM ADP; conditions: for Platelet Aggregation (%), ADP 5 μM: Mean ± SD
# Experimental: as §1, §2
# Platelet counts were determined in each PRP sample with a Coulter Counter ZM (Coulter Co., Hialeah, Fla.). Platelet numbers were adjusted to 3.50×10^8/ml for aggregation using homologous platelet-poor plasma. Platelet aggregation was stimulated with 5 μM ADP, 1 μg/ml collagen, or 10 μM TRAP. All agonists were obtained from Chronolog Corporation (Havertown, Pa.) and Sigma (St. Louis, Miss.). Platelet aggregation experiments were performed using a Chrono-Log Lumi-Aggregometer (model 560-Ca). Aggregation curves were recorded for 4 minutes and analyzed according to internationally established standards using Aggrolink® software. Platelet aggregability was expressed as the percentage of light transmittance change from baseline using platelet-poor plasma as a reference.
# PMA (CD14 + CD151) [3] = assay: Unstimulated whole blood flow cytometry, platelet-monocyte aggregates; conditions: for PMA (CD14 + CD151), Mean Fluorescence Intensity: unstimulated, Mean ± SD
# Experimental: as §1, §2, §3
# CD-40L (CD154) [4] = assay: TRAP-stimulated whole blood flow cytometry, CD40-ligand; conditions: Mean ± SD
# Experimental: as §1, §2, §3, §4
# [5] = E5555 20 ng/ml, Patients (ASA + C)
# [6] = E5555 50 ng/ml, Patients (ASA + C)
# [7] = E5555 100 ng/ml, Patients (ASA + C)
# [8] = E5555 100 ng/ml, Patients (ASA)
# [9] = overall summary, stimulation not stated
smiles,measurement,setting,value
"Br.CCOc1cc2c(c(F)c1OCC)C(=N)N(CC(=O)c1cc(N3CCOCC3)c(OC)c(C(C)(C)C)c1)C2 [E5555, 1-(3-tert-butyl-4-methoxy-5-morpholinophenyl)-2-(5,6-diethoxy-7-fluoro-1-imino-1,3-dihydro-2H-isoindol-2-yl)ethanone hydrobromide]","PMA (CD14 + CD151), Mean Fluorescence Intensity",PMA (CD14 + CD151) [1]; [5],100 ± 21 MFI
same,"PMA (CD14 + CD151), Mean Fluorescence Intensity","PMA (CD14 + CD151) [1]; E5555 20 ng/ml, Patients (ASA)",109 ± 23 MFI
same,"PMA (CD14 + CD151), Mean Fluorescence Intensity","PMA (CD14 + CD151) [1]; E5555 20 ng/ml, Volunteers",133 ± 19 MFI
same,"PMA (CD14 + CD151), Mean Fluorescence Intensity",PMA (CD14 + CD151) [1]; [6],77 ± 23 MFI
same,"PMA (CD14 + CD151), Mean Fluorescence Intensity","PMA (CD14 + CD151) [1]; E5555 50 ng/ml, Patients (ASA)",82 ± 10 MFI
same,"PMA (CD14 + CD151), Mean Fluorescence Intensity","PMA (CD14 + CD151) [1]; E5555 50 ng/ml, Volunteers",118 ± 14 MFI
same,"PMA (CD14 + CD151), Mean Fluorescence Intensity",PMA (CD14 + CD151) [1]; [7],108 ± 19 MFI
same,"PMA (CD14 + CD151), Mean Fluorescence Intensity",PMA (CD14 + CD151) [1]; [8],116 ± 23 MFI
same,"PMA (CD14 + CD151), Mean Fluorescence Intensity","PMA (CD14 + CD151) [1]; E5555 100 ng/ml, Volunteers",125 ± 20 MFI
same,"SPAN-12, Mean Fluorescence Intensity",SPAN-12; [5],11 ± 4 MFI
same,"SPAN-12, Mean Fluorescence Intensity","SPAN-12; E5555 20 ng/ml, Patients (ASA)",14 ± 3 MFI
same,"SPAN-12, Mean Fluorescence Intensity","SPAN-12; E5555 20 ng/ml, Volunteers",19 ± 4 MFI
same,"SPAN-12, Mean Fluorescence Intensity",SPAN-12; [6],10 ± 6 MFI
same,"SPAN-12, Mean Fluorescence Intensity","SPAN-12; E5555 50 ng/ml, Patients (ASA)",11 ± 5 MFI
same,"SPAN-12, Mean Fluorescence Intensity","SPAN-12; E5555 50 ng/ml, Volunteers",19 ± 6 MFI
same,"SPAN-12, Mean Fluorescence Intensity",SPAN-12; [7],12 ± 7 MFI
same,"SPAN-12, Mean Fluorescence Intensity",SPAN-12; [8],13 ± 5 MFI
same,"SPAN-12, Mean Fluorescence Intensity","SPAN-12; E5555 100 ng/ml, Volunteers",18 ± 6 MFI
same,"CD40-ligand, effect in words",CD-40L (CD154) [2]; [9],not affected
same,"CD-40L (CD154), Mean Fluorescence Intensity",CD-40L (CD154) [2]; [5],5.1 ± 1.0 MFI
same,"CD-40L (CD154), Mean Fluorescence Intensity","CD-40L (CD154) [2]; E5555 20 ng/ml, Patients (ASA)",5.0 ± 1.0 MFI
same,"CD-40L (CD154), Mean Fluorescence Intensity","CD-40L (CD154) [2]; E5555 20 ng/ml, Volunteers",5.4 ± 0.8 MFI
same,"CD-40L (CD154), Mean Fluorescence Intensity",CD-40L (CD154) [2]; [6],5.2 ± 0.7 MFI
same,"CD-40L (CD154), Mean Fluorescence Intensity","CD-40L (CD154) [2]; E5555 50 ng/ml, Patients (ASA)",5.2 ± 0.8 MFI
same,"CD-40L (CD154), Mean Fluorescence Intensity","CD-40L (CD154) [2]; E5555 50 ng/ml, Volunteers",5.3 ± 0.5 MFI
same,"CD-40L (CD154), Mean Fluorescence Intensity",CD-40L (CD154) [2]; [7],5.3 ± 1.3 MFI
same,"CD-40L (CD154), Mean Fluorescence Intensity",CD-40L (CD154) [2]; [8],5.1 ± 1.0 MFI
same,"CD-40L (CD154), Mean Fluorescence Intensity","CD-40L (CD154) [2]; E5555 100 ng/ml, Volunteers",5.0 ± 0.9 MFI
same,"inhibition of platelet activity, aggregation induced by ADP",platelets; ASA-treated patients with coronary artery disease,10-12%
same,"ADP-induced aggregation, effect in words",platelets; CAD patients treated with ASA+clopidogrel,remains unchanged
same,"Platelet Aggregation (%), ADP 5 μM","platelets; E5555 20 ng/ml, CAD patients treated with ASA + clopidogrel",40.8 ± 7.1%
same,"Platelet Aggregation (%), ADP 5 μM","platelets; E5555 20 ng/ml, CAD patients treated with ASA",51.8 ± 4.7 %
same,"Platelet Aggregation (%), ADP 5 μM","platelets; E5555 20 ng/ml, healthy volunteers",57.0 ± 9.2 %
same,"Platelet Aggregation (%), ADP 5 μM","platelets; E5555 50 ng/ml, CAD patients treated with ASA + clopidogrel",42.6 ± 8.3%
same,"Platelet Aggregation (%), ADP 5 μM","platelets; E5555 50 ng/ml, CAD patients treated with ASA",53.3 ± 5.9 %
same,"Platelet Aggregation (%), ADP 5 μM","platelets; E5555 50 ng/ml, healthy volunteers",59.4 ± 7.9 %
same,"Platelet Aggregation (%), ADP 5 μM","platelets; E5555 100 ng/ml, CAD patients treated with ASA + clopidogrel",39.3 ± 5.1%
same,"Platelet Aggregation (%), ADP 5 μM","platelets; E5555 100 ng/ml, CAD patients treated with ASA",56.2 ± 5.3%
same,"Platelet Aggregation (%), ADP 5 μM","platelets; E5555 100 ng/ml, healthy volunteers",60.8 ± 10.0 %
same,inhibition of conventional platelet aggregation induced by ADP,"platelets; healthy volunteers, E5555 20, 50, and 100 ng/ml",15-20%
same,inhibition of ADP-induced platelet aggregation in plasma,platelets; overall summary of the study,10-15%
same,"Formation of platelet-monocyte aggregates, effect in words",PMA (CD14 + CD151) [3]; [9],significantly reduced
same,"PMA (CD14 + CD151), Mean Fluorescence Intensity",PMA (CD14 + CD151) [3]; [5],104 ± 16 MFI
same,"PMA (CD14 + CD151), Mean Fluorescence Intensity","PMA (CD14 + CD151) [3]; E5555 20 ng/ml, Patients (ASA)",114 ± 18 MFI
same,"PMA (CD14 + CD151), Mean Fluorescence Intensity","PMA (CD14 + CD151) [3]; E5555 20 ng/ml, Volunteers",130 ± 16 MFI
same,"PMA (CD14 + CD151), Mean Fluorescence Intensity",PMA (CD14 + CD151) [3]; [6],100 ± 27 MFI
same,"PMA (CD14 + CD151), Mean Fluorescence Intensity","PMA (CD14 + CD151) [3]; E5555 50 ng/ml, Patients (ASA)",114 ± 19 MFI
same,"PMA (CD14 + CD151), Mean Fluorescence Intensity","PMA (CD14 + CD151) [3]; E5555 50 ng/ml, Volunteers",128 ± 18 MFI
same,"PMA (CD14 + CD151), Mean Fluorescence Intensity",PMA (CD14 + CD151) [3]; [7],105 ± 21 MFI
same,"PMA (CD14 + CD151), Mean Fluorescence Intensity",PMA (CD14 + CD151) [3]; [8],107 ± 20 MFI
same,"PMA (CD14 + CD151), Mean Fluorescence Intensity","PMA (CD14 + CD151) [3]; E5555 100 ng/ml, Volunteers",124 ± 23 MFI
same,"CD-40L (CD154), Mean Fluorescence Intensity",CD-40L (CD154) [4]; [5],4.9 ± 0.5 MFI
same,"CD-40L (CD154), Mean Fluorescence Intensity","CD-40L (CD154) [4]; E5555 20 ng/ml, Patients (ASA)",5.2 ± 0.4 MFI
same,"CD-40L (CD154), Mean Fluorescence Intensity","CD-40L (CD154) [4]; E5555 20 ng/ml, Volunteers",6.3 ± 0.6 MFI
same,"CD-40L (CD154), Mean Fluorescence Intensity",CD-40L (CD154) [4]; [6],4.0 ± 0.3 MFI
same,"CD-40L (CD154), Mean Fluorescence Intensity","CD-40L (CD154) [4]; E5555 50 ng/ml, Patients (ASA)",4.8 ± 0.5 MFI
same,"CD-40L (CD154), Mean Fluorescence Intensity","CD-40L (CD154) [4]; E5555 50 ng/ml, Volunteers",5.7 ± 0.6 MFI
same,"CD-40L (CD154), Mean Fluorescence Intensity",CD-40L (CD154) [4]; [7],4.7 ± 0.5 MFI
same,"CD-40L (CD154), Mean Fluorescence Intensity",CD-40L (CD154) [4]; [8],5.0 ± 0.8 MFI
same,"CD-40L (CD154), Mean Fluorescence Intensity","CD-40L (CD154) [4]; E5555 100 ng/ml, Volunteers",5.7 ± 0.4 MFI
